Patent publication US20260297131A1, “COMPOSITIONS AND METHODS FOR PEPTIDE-BASED MODULATORS OF HUMAN PAPILLOMAVIRUS ONCOPROTEIN E6” (priority 2023, published 2026)
Square brackets hold non-standard residues; d marks the D form. Peptide text beside a SMILES is read from it. * marks the point of attachment. 2Nal = N[C@@H](Cc1ccc2ccccc2c1)C(=O)O; Gly(cPent) = N[C@H](C(=O)O)C1CCCC1; X1 = O=C(Cn1c2ccccc2c2ccccc21)*; Aad = N[C@@H](CCCC(=O)O)C(=O)O; Cba = N[C@@H](CC1CCC1)C(=O)O; Aib = CC(C)(N)C(=O)O; Dha = C=C(N)C(=O)O

Legend:
[1] = target: SARS-CoV-2 3C-Like Protease; details: role: inhibitor; comparison drug; cited from earlier work
MBP-16E6 [2] = target: T1, MBP-16E6 (Human papillomavirus 16, UniProt P03126, C104S/C118S/C147S/C87S); details: for improvement of binding relative to peptide 18: apparent Ki; for Ratio to wild-type: N-terminal modified peptides, KD of WT divided by KD
MBP-16E6 [3] = target: T1, MBP-16E6; details: for mono-crosslink yield at 1 h: 1 μM MBP-16E6, 4 μM Dha peptide; for mono-crosslink in 2 h: 2 h at 37° C., 10 eq. to protein 16E6
MBP-16E6 [4] = target: T1, MBP-16E6; experiment: biochemical
[5] = KD in nM, N-terminal modified peptides, competition mode, N = 2 or 3, SEM of curve fitting
[6] = competition KD, BLI competition, values in text

T1 sequence (P03126 whole entry C104S/C118S/C147S/C87S, looked up): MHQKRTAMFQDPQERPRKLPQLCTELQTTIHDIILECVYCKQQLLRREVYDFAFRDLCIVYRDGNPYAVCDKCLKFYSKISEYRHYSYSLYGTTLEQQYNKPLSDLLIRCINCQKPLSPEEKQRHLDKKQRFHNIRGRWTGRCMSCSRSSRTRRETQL

| Compound | mono-crosslink in 2 h (MBP-16E6 [3]) | Ki (MBP-16E6 [4]) [µM] | Ratio to wild-type (MBP-16E6 [2]) | Kd (MBP-16E6 [4]; [5]) [nM] | further results |
| --- | --- | --- | --- | --- | --- |
| CC(C)(C)[C@H](NC(=O)C(F)(F)F)C(=O)N1C[C@H]2[C@@H]([C@H]1C(=O)N[C@H](C#N)C[C@@H]1CCNC1=O)C2(C)C [nirmatrelvir] | – | – | – | – | kinact/Ki [1]: 55000 M⁻¹ s⁻¹ |
| C=C(NC(=O)[C@H](C)NC(=O)[C@H](C)NC(=O)[C@H](CCC(=O)O)NC(=O)C(C)(C)NC(=O)[C@H](C)NC(=O)[C@@H](NC(=O)[C@H](Cc1ccc2ccccc2c1)NC(=O)[C@@H](N)CCCC(=O)O)C1CCCC1)C(=O)N[C@@H](CCC(=O)O)C(=O)N[C@@H](CCC(=O)O)C(=O)N[C@@H](CCCNC(=N)N)C(N)=O [Peptide 18-3L3A] (H-[Aad][2Nal][Gly(cPent)]A[Aib]EAA[Dha]EER-NH2) | – | – | – | – | binding to MBP-16E6 (MBP-16E6 [2]; BLI): no observable binding; crosslinking to MBP-16E6 (MBP-16E6 [3]; LC-MS): no observable crosslinking |
| C=C(NC(=O)[C@H](CC(C)C)NC(=O)[C@H](CC1CCC1)NC(=O)[C@H](CCC(=O)O)NC(=O)C(C)(C)NC(=O)[C@H](CC(C)C)NC(=O)[C@@H](NC(=O)[C@H](Cc1ccc2ccccc2c1)NC(=O)[C@H](CCCC(=O)O)NC(=O)[C@H](C)NC(=O)[C@H](CO)NC(=O)[C@H](CCC(N)=O)NC(=O)[C@@H]1CCCN1C(=O)[C@@H](NC(=O)Cn1c2ccccc2c2ccccc21)[C@@H](C)CC)C1CCCC1)C(=O)N[C@@H](CCC(=O)O)C(=O)N[C@@H](CCC(=O)O)C(=O)N[C@@H](CCCNC(=N)N)C(N)=O [Peptide 18-Car-IPQSA] (X1-IPQSA[Aad][2Nal][Gly(cPent)]L[Aib]E[Cba]L[Dha]EER-NH2) | quantitatively mono-crosslink | 0.025 ± 0.0055 | – | – | improvement of binding relative to peptide 18 (MBP-16E6 [2]): 7 fold; mono-crosslink yield at 1 h (MBP-16E6 [3]): 85% |
| CC[C@H](C)[C@H](NC(=O)c1c(O)cccc1O)C(=O)N1CCC[C@H]1C(=O)N[C@@H](CCC(=O)O)C(=O)N[C@@H](CO)C(=O)N[C@@H](CO)C(=O)N[C@@H](CCC(=O)O)C(=O)N[C@@H](CC(C)C)C(=O)N[C@H](C(=O)N[C@@H](CC(C)C)C(=O)N[C@@H](CCC(N)=O)C(=O)N[C@@H](CCC(=O)O)C(=O)N[C@@H](CC(C)C)C(=O)N[C@@H](CC(C)C)C(=O)NCC(=O)N[C@@H](CCC(=O)O)C(=O)N[C@@H](CCC(=O)O)C(=O)N[C@@H](CCCNC(=N)N)C(=O)N[C@@H](CCCNC(=N)N)C(N)=O)[C@@H](C)O [Peptide N15] | – | – | 3.1 | 767 ± 295 | – |
| C=C(NC(=O)[C@H](CC(C)C)NC(=O)[C@H](CC1CCC1)NC(=O)[C@H](CCC(=O)O)NC(=O)C(C)(C)NC(=O)[C@H](CC(C)C)NC(=O)[C@@H](NC(=O)[C@H](Cc1ccc2ccccc2c1)NC(=O)[C@H](CCCC(=O)O)NC(=O)Cn1c2ccccc2c2ccccc21)C1CCCC1)C(=O)N[C@@H](CCC(=O)O)C(=O)N[C@@H](CCC(=O)O)C(=O)N[C@@H](CCCNC(=N)N)C(N)=O [Peptide 18-Car] (X1-[Aad][2Nal][Gly(cPent)]L[Aib]E[Cba]L[Dha]EER-NH2) | quantitatively mono-crosslink | 0.096 ± 0.033 | – | – | improvement of binding relative to peptide 18 (MBP-16E6 [2]): 3 fold |
| CC[C@H](C)[C@H](NC(=O)c1ccc2c3c(cccc13)CC2)C(=O)N1CCC[C@H]1C(=O)N[C@@H](CCC(=O)O)C(=O)N[C@@H](CO)C(=O)N[C@@H](CO)C(=O)N[C@@H](CCC(=O)O)C(=O)N[C@@H](CC(C)C)C(=O)N[C@H](C(=O)N[C@@H](CC(C)C)C(=O)N[C@@H](CCC(N)=O)C(=O)N[C@@H](CCC(=O)O)C(=O)N[C@@H](CC(C)C)C(=O)N[C@@H](CC(C)C)C(=O)NCC(=O)N[C@@H](CCC(=O)O)C(=O)N[C@@H](CCC(=O)O)C(=O)N[C@@H](CCCNC(=N)N)C(=O)N[C@@H](CCCNC(=N)N)C(N)=O)[C@@H](C)O [Peptide N19] | – | – | 44.4 | 55 ± 12 | Kd (MBP-16E6 [4]; [6]): < 70 nM |
| C=C(NC(=O)[C@H](CC(C)C)NC(=O)[C@H](CC1CCC1)NC(=O)[C@H](CCC(=O)O)NC(=O)C(C)(C)NC(=O)[C@H](CC(C)C)NC(=O)[C@@H](NC(=O)[C@H](Cc1ccc2ccccc2c1)NC(=O)[C@H](CCCC(=O)O)NC(=O)[C@H](C)NC(=O)[C@H](CO)NC(=O)[C@H](CCC(N)=O)NC(=O)[C@@H]1CCCN1C(=O)[C@@H](NC(=O)Cn1c2ccccc2c2ccccc21)[C@@H](C)CC)C1CCCC1)C(N)=O [18-Car-IPQSA-truncEER] (X1-IPQSA[Aad][2Nal][Gly(cPent)]L[Aib]E[Cba]L[Dha]-NH2) | quantitatively mono-crosslink | 0.044 ± 0.011 | – | – | mono-crosslink yield at 1 h (MBP-16E6 [3]): 76% |
| CC[C@H](C)[C@H](NC(=O)[C@@H](N)Cc1ccc(-c2ccccc2)cc1)C(=O)N1CCC[C@H]1C(=O)N[C@@H](CCC(=O)O)C(=O)N[C@@H](CO)C(=O)N[C@@H](CO)C(=O)N[C@@H](CCC(=O)O)C(=O)N[C@@H](CC(C)C)C(=O)N[C@H](C(=O)N[C@@H](CC(C)C)C(=O)N[C@@H](CCC(N)=O)C(=O)N[C@@H](CCC(=O)O)C(=O)N[C@@H](CC(C)C)C(=O)N[C@@H](CC(C)C)C(=O)NCC(=O)N[C@@H](CCC(=O)O)C(=O)N[C@@H](CCC(=O)O)C(=O)N[C@@H](CCCNC(=N)N)C(=O)N[C@@H](CCCNC(=N)N)C(N)=O)[C@@H](C)O [Peptide N21] | – | – | 1.7 | 1410 ± 757 | decrease in binding by change of terminal group (MBP-16E6 [2]; relative to fluorene-modified N1 / parent modification): ~ 27 fold; Kd (MBP-16E6 [4]; [6]): 1410 nM |
| CC[C@H](C)[C@H](NC(=O)Cc1cc(=O)oc2cc(OC)ccc12)C(=O)N1CCC[C@H]1C(=O)N[C@@H](CCC(=O)O)C(=O)N[C@@H](CO)C(=O)N[C@@H](CO)C(=O)N[C@@H](CCC(=O)O)C(=O)N[C@@H](CC(C)C)C(=O)N[C@H](C(=O)N[C@@H](CC(C)C)C(=O)N[C@@H](CCC(N)=O)C(=O)N[C@@H](CCC(=O)O)C(=O)N[C@@H](CC(C)C)C(=O)N[C@@H](CC(C)C)C(=O)NCC(=O)N[C@@H](CCC(=O)O)C(=O)N[C@@H](CCC(=O)O)C(=O)N[C@@H](CCCNC(=N)N)C(=O)N[C@@H](CCCNC(=N)N)C(N)=O)[C@@H](C)O [Peptide N20] | – | – | 11.4 | 213 ± 47 | – |
| C=C(NC(=O)[C@H](CC(C)C)NC(=O)[C@H](CC1CCC1)NC(=O)[C@H](CCC(=O)O)NC(=O)C(C)(C)NC(=O)[C@H](CC(C)C)NC(=O)[C@@H](NC(=O)[C@H](CCCCNC(=O)Cn1c2ccccc2c2ccccc21)NC(=O)[C@H](CCCC(=O)O)NC(C)=O)C1CCCC1)C(=O)N[C@@H](CCC(=O)O)C(=O)N[C@@H](CCC(=O)O)C(=O)N[C@@H](CCCNC(=N)N)C(N)=O [Peptide 18-Naf2Cab] (Ac-[Aad]K(X1)[Gly(cPent)]L[Aib]E[Cba]L[Dha]EER-NH2) | quantitatively mono-crosslink | 0.051 ± 0.011 | – | – | mono-crosslink yield at 1 h (MBP-16E6 [3]): 83% |
| CC[C@H](C)[C@H](NC(=O)c1ccc2cc(O)ccc2c1)C(=O)N1CCC[C@H]1C(=O)N[C@@H](CCC(=O)O)C(=O)N[C@@H](CO)C(=O)N[C@@H](CO)C(=O)N[C@@H](CCC(=O)O)C(=O)N[C@@H](CC(C)C)C(=O)N[C@H](C(=O)N[C@@H](CC(C)C)C(=O)N[C@@H](CCC(N)=O)C(=O)N[C@@H](CCC(=O)O)C(=O)N[C@@H](CC(C)C)C(=O)N[C@@H](CC(C)C)C(=O)NCC(=O)N[C@@H](CCC(=O)O)C(=O)N[C@@H](CCC(=O)O)C(=O)N[C@@H](CCCNC(=N)N)C(=O)N[C@@H](CCCNC(=N)N)C(N)=O)[C@@H](C)O [Peptide N17] | – | – | 15.3 | 159 ± 47 | – |
| CC[C@H](C)[C@H](NC(=O)[C@@H](N)CC1CCCCC1)C(=O)N1CCC[C@H]1C(=O)N[C@@H](CCC(=O)O)C(=O)N[C@@H](CO)C(=O)N[C@@H](CO)C(=O)N[C@@H](CCC(=O)O)C(=O)N[C@@H](CC(C)C)C(=O)N[C@H](C(=O)N[C@@H](CC(C)C)C(=O)N[C@@H](CCC(N)=O)C(=O)N[C@@H](CCC(=O)O)C(=O)N[C@@H](CC(C)C)C(=O)N[C@@H](CC(C)C)C(=O)NCC(=O)N[C@@H](CCC(=O)O)C(=O)N[C@@H](CCC(=O)O)C(=O)N[C@@H](CCCNC(=N)N)C(=O)N[C@@H](CCCNC(=N)N)C(N)=O)[C@@H](C)O [Peptide N22] | – | – | 1.4 | 1660 ± 705 | – |
